Source: DBAASP
≈ marks a conversion by molar mass, not a printed value. Blank lines part the entries; values can stand above or below the compound they belong to.

Columns and labels:
Assay in all cases: ≥ marks a high value that may be exact or a test limit, other limits are often not marked, values filed in µg/mL are converted to µM
[1] = test system: Candida albicans IHEM 8060
Candida glabrata = test system: Candida glabrata
[2] = test system: Psychrobacter faecalis X29
[3] = test system: Rhodococcus rhodochrous X15
[4] = test system: Staphylococcus aureus ATCC 2592
[5] = test system: Staphylococcus carnosus KHS
[6] = test system: Bacillus licheniformis X39
[7] = test system: Staphylococcus aureus ATCC 25923
[8] = test system: Bacillus cereus ATCC 11778
Vibrio cholerae O1 Inaba = test system: Vibrio cholerae O1 Inaba
Escherichia coli O157:H7 = test system: Escherichia coli O157:H7
[9] = test system: Escherichia coli ATCC 25922
[10] = test system: Pseudomonas aeruginosa ATCC 27853
[11] = test system: Staphylococcus epidermidis ATCC 12228
[12] = test system: Enterococcus faecalis ATCC 29212
[13] = test system: Listeria monocytogenes 10403s
[14] = test system: Salmonella enterica subsp. enterica serovar Typhimurium ATCC 13311
[15] = test system: Shigella sonnei ATCC 11060
Acinetobacter baumannii = test system: Acinetobacter baumannii
Pseudomonas aeruginosa = test system: Pseudomonas aeruginosa
Pseudomonas aeruginosa 1 = test system: Pseudomonas aeruginosa 1
[16] = test system: Staphylococcus aureus 1056
[17] = test system: Staphylococcus aureus ATCC 29231
[18] = test system: Klebsiella aerogenes ATCC 13048
[19] = test system: Staphylococcus aureus MW2
[20] = test system: Candida albicans ATCC 10231
[21] = test system: Bacillus subtilis IFO 3336
[22] = test system: Escherichia coli IFO 3301

MIC (Escherichia coli O157:H7): 0.321 µM (≈ 1.29 µg/mL)
MIC [16]: 0.291 µM (≈ 1.17 µg/mL)
Compound: CC(C)C[C@@H]1NC(=O)[C@H](Cc2cnc[nH]2)NC(=O)[C@H](C)NC(=O)[C@@H]2CCCN2C(=O)[C@@H]2CSSC[C@@H](C(=O)N[C@@H](CCCCN)C(=O)N[C@@H](Cc3c[nH]c4ccccc34)C(=O)N3CCC[C@H]3C(=O)N[C@@H](Cc3c[nH]c4ccccc34)C(=O)N[C@@H](CC(=O)O)C(=O)N[C@H](C(=O)O)C(C)C)NC(=O)[C@@H]3CSSC[C@H](NC(=O)[C@H](Cc4ccccc4)NC(=O)[C@@H](N)CC(C)C)C(=O)N[C@@H](CCCN=C(N)N)C(=O)N[C@@H](CCCCN)C(=O)NCC(=O)N[C@@H]([C@@H](C)O)C(=O)N[C@@H](CSSC[C@H](NC(=O)[C@H](CO)NC(=O)CNC(=O)[C@H](C(C)C)NC(=O)[C@H](CCCCN)NC(=O)[C@H](C(C)C)NC1=O)C(=O)N[C@@H](Cc1ccccc1)C(=O)NCC(=O)N[C@@H](Cc1ccccc1)C(=O)N[C@@H](CCCN=C(N)N)C(=O)N[C@@H](C)C(=O)N3)C(=O)N[C@@H](Cc1cnc[nH]1)C(=O)N[C@@H](Cc1ccccc1)C(=O)NCC(=O)NCC(=O)N2 [LFCRKGTCHFGGCPAHLVKVGSCFGFRACCKWPWDV]

MIC [17]: 7.33 µM (≈ 16 µg/mL)
MIC [18]: ≥ 58.6 µM
MIC [19]: 14.7 µM (≈ 32 µg/mL)
MIC [20]: 29.3 µM (≈ 64 µg/mL)
Compound: CC[C@H](C)[C@H](NC(=O)[C@H](CCCCN)NC(=O)[C@H](CCCCN)NC(=O)[C@H](CC(C)C)NC(=O)[C@@H](NC(=O)[C@H](CCCCN)NC(=O)[C@H](Cc1c[nH]c2ccccc12)NC(=O)[C@@H](N)CC(C)C)[C@@H](C)CC)C(=O)N[C@@H](Cc1c[nH]c2ccccc12)C(=O)N[C@@H](CCCN=C(N)N)C(=O)N[C@H](C(=O)NCC(=O)N[C@@H](Cc1c[nH]c2ccccc12)C(=O)N[C@@H](CC(N)=O)C(=O)N[C@@H](Cc1c[nH]c2ccccc12)C(=O)N[C@@H](CCCN=C(N)N)C(=O)O)C(C)C [LWKILKKIWRVGWNWR]

MIC [21]: 7.61 µM (≈ 10 µg/mL)
MIC [22]: 15.2 µM (≈ 20 µg/mL)
Compound: NC(N)=NCCC[C@H](NC(=O)[C@H](CS)NC(=O)[C@H](CCCN=C(N)N)NC(=O)[C@H](CS)NC(=O)[C@H](CCCN=C(N)N)NC(=O)[C@H](CS)NC(=O)[C@H](CCCN=C(N)N)NC(=O)[C@H](CS)NC(=O)[C@@H](N)CCCN=C(N)N)C(=O)N[C@@H](CS)C(=O)O [RCRCRCRCRC]

More lines, now with the values behind:

Compound: CC[C@H](C)[C@@H]1NC(=O)[C@@H](N)CSSC[C@@H]2NC(=O)[C@@H]3CSSC[C@@H](C(=O)N[C@@H](CCCN=C(N)N)C(=O)O)NC(=O)[C@H](Cc4ccc(O)cc4)NC(=O)CNC(=O)[C@H](C)NC(=O)[C@H](C(C)C)NC(=O)[C@H](Cc4c[nH]c5ccccc45)NC(=O)CNC(=O)[C@@H]4CCCN4C(=O)[C@H](CCC(=O)O)NC(=O)[C@H](CCCCN)NC(=O)[C@H](Cc4cnc[nH]4)NC(=O)[C@H](CSSC[C@H](NC(=O)CNC(=O)[C@H](CC(N)=O)NC(=O)CNC(=O)[C@H](CC(N)=O)NC(=O)[C@H](CCCCN)NC1=O)C(=O)N[C@@H](CCC(N)=O)C(=O)N1CCC[C@H]1C(=O)N[C@@H](CC(=O)O)C(=O)NCC(=O)N[C@@H](CO)C(=O)N[C@@H](CCC(N)=O)C(=O)NCC(=O)N[C@@H](CC(N)=O)C(=O)N3)NC(=O)[C@H](Cc1ccc(O)cc1)NC(=O)[C@H](CCCN=C(N)N)NC(=O)[C@H](CO)NC2=O [CIKNGNGCQPDGSQGNCCSRYCHKEPGWVAGYCR]
MIC [1]: 17.3 µM (≈ 63.9 µg/mL)
MIC (Candida glabrata): 17.3 µM (≈ 63.9 µg/mL)

Compound: CC[C@H](C)[C@@H]1NC(=O)[C@H](CCCCN)NC(=O)[C@@H](NC(=O)[C@H](Cc2ccccc2)NC(=O)[C@H](CC(C)C)NC(=O)[C@@H](NC(=O)[C@@H]2CCCN2C(=O)[C@@H](NC(=O)[C@@H](NC(=O)[C@H](CCCCN)NC(=O)CNC(=O)[C@@H](NC(=O)[C@H](CC(C)C)NC(=O)CNC(=O)[C@H](CC(C)C)NC(=O)[C@H](CC(C)C)NC(=O)[C@H](CO)NC(=O)CNC(=O)[C@H](CC(C)C)NC(=O)[C@@H](N)Cc2ccccc2)C(C)C)C(C)C)C(C)C)[C@@H](C)O)CSSC[C@@H](C(=O)O)NC(=O)[C@H](CCCCN)NC(=O)[C@H](CCCCN)NC(=O)[C@H](CO)NC1=O [FLGSLLGLVGKVVPTLFCKISKKC]
MIC [2]: 4.9 µM (≈ 12.5 µg/mL)
MIC [3]: 1.22 µM (≈ 3.1 µg/mL)
MIC [4]: 1.22 µM (≈ 3.1 µg/mL)
MIC [5]: 4.9 µM (≈ 12.5 µg/mL)
MIC [6]: 9.8 µM (≈ 25 µg/mL)

Compound: CC[C@H](C)[C@H](NC(=O)[C@H](CCCN=C(N)N)NC(=O)[C@H](CCCCN)NC(=O)[C@H](C)NC(=O)[C@@H](NC(=O)[C@@H](N)CCCCN)[C@@H](C)CC)C(=O)N[C@@H](Cc1c[nH]c2ccccc12)C(=O)N[C@@H](CCCCN)C(=O)N[C@H](C(=O)N[C@@H](CC(C)C)C(=O)N[C@@H](CCCN=C(N)N)C(=O)N[C@@H](CCCN=C(N)N)C(=O)N[C@@H](CCCN=C(N)N)C(=O)N[C@@H](CC(C)C)C(N)=O)[C@@H](C)CC [KIAKRIWKILRRRL]
MIC [7]: 8.45 µM (≈ 15.6 µg/mL)
MIC [8]: 4.22 µM (≈ 7.81 µg/mL)
MIC (Vibrio cholerae O1 Inaba): 4.22 µM (≈ 7.81 µg/mL)
MIC (Escherichia coli O157:H7): ≥ 33.8 µM
MIC [9]: 8.45 µM (≈ 15.6 µg/mL)
MIC [10]: 2.11 µM (≈ 3.91 µg/mL)
MIC [11]: 2.11 µM (≈ 3.91 µg/mL)
MIC [12]: 67.6 µM (≈ 125 µg/mL)
MIC [13]: 1.05 µM (≈ 1.95 µg/mL)
MIC [14]: 1.05 µM (≈ 1.95 µg/mL)
MIC [15]: 2.11 µM (≈ 3.91 µg/mL)
MIC (Acinetobacter baumannii): 2.11 µM (≈ 3.91 µg/mL)

Compound: CC[C@H](C)[C@H](NC(=O)[C@H](CCCN=C(N)N)NC(=O)[C@H](CCCCN)NC(=O)[C@H](C)NC(=O)[C@@H](NC(=O)[C@@H](N)CCCCN)[C@@H](C)CC)C(=O)N[C@@H](Cc1c[nH]c2ccccc12)C(=O)N[C@@H](CCCCN)C(=O)N[C@H](C(=O)N[C@@H](CC(C)C)C(=O)N[C@@H](CCCN=C(N)N)C(=O)N[C@@H](CCCN=C(N)N)C(=O)N[C@@H](CCCN=C(N)N)C(N)=O)[C@@H](C)CC [KIAKRIWKILRRR]
MIC [7]: 36 µM (≈ 62.5 µg/mL)
MIC [8]: 9 µM (≈ 15.6 µg/mL)
MIC (Vibrio cholerae O1 Inaba): 18 µM (≈ 31.2 µg/mL)
MIC (Pseudomonas aeruginosa): 4.5 µM (≈ 7.81 µg/mL)
MIC (Pseudomonas aeruginosa 1): 2.25 µM (≈ 3.91 µg/mL)
MIC (Escherichia coli O157:H7): 18 µM (≈ 31.2 µg/mL)
MIC [9]: 18 µM (≈ 31.2 µg/mL)
MIC [11]: 2.25 µM (≈ 3.91 µg/mL)
MIC [12]: 144 µM (≈ 250 µg/mL)
MIC [13]: 2.25 µM (≈ 3.91 µg/mL)
MIC [14]: 1.12 µM (≈ 1.95 µg/mL)
MIC [15]: 2.25 µM (≈ 3.91 µg/mL)
MIC (Acinetobacter baumannii): 4.5 µM (≈ 7.81 µg/mL)
